Literature values, collected in US6586417B1, “Ester and ether derivatives of 4-hydroxy 4-androstene-3,17-dione and a method for the regulation of athletic function in humans” (NutriSport Pharmacal, Inc., priority 2002, dated 2003).

Assays:
[1] = tested on: transformation of testosterone to dihydrotestosterone in the ventral prostrate; details: ventral prostrate of the adult male rat
[2] = tested on: rat follicles; details: rat follicles in vitro
[3] = tested on: rats; details: for weight of the genital organs (testis, ventral prostrate, seminal vesicle) / luteinizing hormone (LH) levels: rats, subcutaneous treatment; for luteinizing hormone (LH) levels: 4-acetoxy-4-androstenedione given against effects of 19-hydroxytestosterone
[4] = tested on: estrogen
[5] = target: T1, aromatase enzyme (Homo sapiens, UniProt P11511); details: at 24 and 48 weeks
T1 construct: host or cells: endogenous enzyme in treated males (in vivo)
T1 sequence (P11511 1-503): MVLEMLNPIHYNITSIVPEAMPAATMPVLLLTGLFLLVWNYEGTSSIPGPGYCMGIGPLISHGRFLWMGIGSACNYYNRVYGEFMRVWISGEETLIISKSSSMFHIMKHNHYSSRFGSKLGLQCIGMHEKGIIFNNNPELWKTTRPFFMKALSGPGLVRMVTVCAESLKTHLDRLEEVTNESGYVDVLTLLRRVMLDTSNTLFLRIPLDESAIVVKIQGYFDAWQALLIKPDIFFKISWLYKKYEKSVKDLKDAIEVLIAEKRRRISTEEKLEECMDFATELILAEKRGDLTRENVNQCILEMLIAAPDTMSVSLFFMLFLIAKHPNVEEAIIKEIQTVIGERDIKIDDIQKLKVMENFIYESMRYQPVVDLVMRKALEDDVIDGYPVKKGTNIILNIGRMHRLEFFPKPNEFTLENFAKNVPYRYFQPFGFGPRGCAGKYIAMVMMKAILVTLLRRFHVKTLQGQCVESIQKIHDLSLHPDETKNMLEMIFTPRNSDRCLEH

SMILES: CC(=O)OC1=C2CC[C@@H]3[C@H](CC[C@]4(C)C(=O)CC[C@@H]34)[C@@]2(C)CCC1=O [4-acetoxy-4-androstenedione]
- inhibition of the transformation of testosterone to dihydrotestosterone [1]: able to inhibit
- stimulation of testosterone, in combination with luteinizing hormone (LH) ([2]; first eight hours, plus LH): greatly stimulate testosterone
- stimulation of testosterone, compound alone ([2]; first eight hours, without LH): directly stimulate testosterone alone
- stimulation of testosterone relative to luteinizing hormone (LH) ([2]; next sixteen hours, compound alone): three times as much as luteinizing hormone (LH)
- meiotic activity ([3]; rats treated with 19-hydroxytestosterone): restored meiotic activity
- weight of the genital organs (testis, ventral prostrate, seminal vesicle) [3]: increased the weight of the genital organs
- luteinizing hormone (LH) levels [3]: increased luteinizing hormone (LH) levels

SMILES: C[C@]12CCC(=O)C(O)=C1CC[C@@H]1[C@@H]2CC[C@]2(C)C(=O)CC[C@@H]12 [4-hydroxy 4-androstenedione, 4-hydroxy 4-androstene-3, 17-dione]
- inhibition of the transformation of testosterone to dihydrotestosterone [1]: able to inhibit
- escape from estrogen suppression ([4]; 500 mg p.o. daily versus single i.m. injection of 125 mg): more rapid
- oral absorption ([4]; p.o.): adequate oral absorption

SMILES: C[C@]12CC[C@H]3[C@@H](CCC4=CC(=O)CC[C@@]43CO)[C@@H]1CC[C@@H]2O [19-hydroxytestosterone, reference compound]
- weight of the genital organs (testis, ventral prostrate, seminal vesicle) [3]: decrease in weight of the testis, ventral prostrate, seminal vesicle
- luteinizing hormone (LH) levels [3]: decrease

SMILES: CC1=CC(=O)C=C2CC[C@@H]3[C@H](CC[C@]4(C)C(=O)CC[C@@H]34)[C@@]12C [atamestane]
- restoration of androgens over estrogens [5]: restoration of androgens over estrogens
